Reference: patent US20120328569A1, “INHIBITORS OF HEPATITIS C VIRUS NS5B POLYMERASE” (priority 2010, published 2012)

system: HCV genotype 1b replicon; assay: HCV replicon assay, cell ELISA with antibody to replicon-encoded NS3/4A (genotype 1b replicon); assay type: cell-based, hepatitis C virus; settings: Hepatitis C virus, 96 h, read-out: Replicon 1b IC50 (nM), HCV genotype 1b replicon cells, 96 hours incubation, NS3/4A ELISA readout
Method: The HCV NS5B inhibitory activity of the present compounds may be tested using assays known in the art. The HCV NS5B polymerase inhibitors described herein have activities in a genotype 1b replicon assay as described in the Examples. The assay is performed by incubating a replicon harboring cell-line in the presence of inhibitor for a set period of time and measuring the effect of the inhibitor on HCV replicon replication either directly by quantifying replicon RNA level, or indirectly by measuring enzymatic activity of a co-encoded reporter enzyme such as luciferase or β-lactamase. By performing a series of such measurements at different inhibitor concentrations, the effective inhibitory concentration of the inhibitor (EC50 or EC90) is determined. See Jan M. Vrolijk et al., A replicons-based bioassay for the measurement of interferons in patients with chronic hepatitis C, 110 J. VIROLOGICAL METHODS 201 (2003). Such assays may also be run in an automated format for high through-put screening. See Paul Zuck et al., A cell-based β-lactamase reporter gene assay for the identification of inhibitors of hepatitis C virus replication, 334 ANALYTICAL BIOCHEMISTRY 344 (2004).
Measurement of inhibition by compounds was performed using the HCV replicon system. Several different replicons encoding different HCV genotypes or mutations were used. In addition, potency measurements were made using different formats of the replicon assay, including different ways of measurements and different plating formats. See Jan M. Vrolijk et al., A replicons-based bioassay for the measurement of interferons in patients with chronic hepatitis C, 110 J. VIROLOGICAL METHODS 201 (2003); Steven S. Carroll et al., Inhibition of Hepatitis C Virus RNA Replication by 2′-Modified Nucleoside Analogs, 278(14) J. BIOLOGICAL CHEMISTRY 11979 (2003). However, the underlying principles are common to all of these determinations, and are outlined below.
Stable neomycin phosphotransferase encoding replicons-harboring cell lines were used, so all cell lines were maintained under G418 selection prior to the assay. Potency was determined using a cell ELISA assay with an antibody to the replicons encoded NS3/4a protease. See Caterina Trozzi et al., In Vitro Selection and Characterization of Hepatitis C Virus Serine Protease Variants Resistant to an Active-Site Peptide Inhibitor, 77(6) J. Virol. 3669 (2003). To initiate an assay, replicon cells were plated in the presence of a dilution series of test compound in the absence of G418. Typically, the assays were performed in a 96-well plate formate for manual operation, or a 384-well plate format for automated assay. Replicon cells and compound were incubated for 96 hours. At the end of the assay, cells were washed free of media and compound, and the cells were then lysed. RNA was quantified indirectly through detection of replicon-encoded NS3/4A protein levels, through an ELISA-based assay with an antibody specific for NS3/4A. IC50 determinations were calculated as a percentage of a DMSO control by fitting the data to a four-parameter fit function and the data obtained is provided in the table below.

Compound	IC50
CNC(=O)c1c(-c2ccc(F)cc2)oc2cc(N(C)S(C)(=O)=O)c(-c3ccc(C)cc3)cc12 [Example 82, 2-(4-fluorophenyl)-N-methyl-6-[methyl (methylsulfonyl)amino]-5-(4-methylphenyl)-1-benzofuran-3-carboxamide]	53 nM
CNC(=O)c1c(-c2ccc(F)cc2)oc2cc(N(C)S(C)(=O)=O)c(-c3ccccc3N(C)S(C)(=O)=O)cc12 [Example 83, 2-(4-fluorophenyl)-N-methyl-6-[methyl (methylsulfonyl)amino]-5-{2-[methyl (methylsulfonyl)amino]phenyl}-1-benzofuran-3-carboxamide]	232 nM
CNC(=O)c1c(-c2ccc(F)cc2)oc2cc(N(C)S(C)(=O)=O)c(-c3cccc(C#N)c3)cc12 [Example 84, 5-(3-cyanophenyl)-2-(4-fluorophenyl)-N-methyl-6-[methyl (methylsulfonyl)amino]-1-benzofuran-3-carboxamide]	107 nM
CNC(=O)c1c(-c2ccc(F)cc2)oc2cc(N(C)S(C)(=O)=O)c(-c3ccc(C#N)cc3)cc12 [Example 85, 5-(4-cyanophenyl)-2-(4-fluorophenyl)-N-methyl-6-[methyl (methylsulfonyl)amino]-1-benzofuran-3-carboxamide]	43 nM
CNC(=O)c1c(-c2ccc(F)cc2)oc2cc(N(C)S(C)(=O)=O)c(-c3cccc(F)c3)cc12 [Example 86, 5-(3-fluorophenyl)-2-(4-fluorophenyl)-N-methyl-6-[methyl (methylsulfonyl)amino]-1-benzofuran-3-carboxamide]	28 nM
CNC(=O)c1c(-c2ccc(F)cc2)oc2cc(N(C)S(C)(=O)=O)c(-c3ccc(F)cc3)cc12 [Example 87, 2,5-bis(4-fluorophenyl)-N-methyl-6-[methyl (methylsulfonyl)amino]-1-benzofuran-3-carboxamide]	39 nM
CNC(=O)c1c(-c2ccc(F)cc2)oc2cc(N(C)S(C)(=O)=O)c(-c3cccc(OC)c3)cc12 [Example 88, 2-(4-fluorophenyl)-5-(3-methoxyphenyl)-N-methyl-6-[methyl (methylsulfonyl)amino]-1-benzofuran-3-carboxamide]	52 nM
CNC(=O)c1c(-c2ccc(F)cc2)oc2cc(N(C)S(C)(=O)=O)c(-c3ccc(OC)cc3)cc12 [Example 89, 2-(4-fluorophenyl)-5-(4-methoxyphenyl)-N-methyl-6-[methyl (methylsulfonyl)amino]-1-benzofuran-3-carboxamide]	23 nM
CONC(=O)c1c(-c2ccc(F)cc2)oc2cc(N(C)S(C)(=O)=O)c(-c3ccccc3F)cc12 [Example 90, 5(2-fluorophenyl)-2-(4-fluorophenyl)-N-methoxy-6-[methyl(methylsulfonyl)amino]-1-benzofuran-3-carboxamide]	197 nM
CONC(=O)c1c(-c2ccc(F)cc2)oc2cc(N(C)S(C)(=O)=O)c(-c3ccccc3OC)cc12 [Example 91, 2-(4-fluorophenyl)-N-methoxy-5-(2-methoxyphenyl)-6-[methyl (methylsulfonyl)amino]-1-benzofuran-3-carboxamide]	342 nM
CONC(=O)c1c(-c2ccc(F)cc2)oc2cc(N(C)S(C)(=O)=O)c(-c3cccc(C)c3)cc12 [Example 92, 2-(4-fluorophenyl)-N-methoxy-6-[methyl (methylsulfonyl)amino]-5-(3-methylphenyl)-1-benzofuran-3-carboxamide]	252 nM
CONC(=O)c1c(-c2ccc(F)cc2)oc2cc(N(C)S(C)(=O)=O)c(-c3ccc(C)cc3)cc12 [Example 93, 2-(4-fluorophenyl)-N-methoxy-6-[methyl (methylsulfonyl)amino]-5-(4-methylphenyl)-1-benzofuran-3-carboxamide]	54 nM
CONC(=O)c1c(-c2ccc(F)cc2)oc2cc(N(C)S(C)(=O)=O)c(-c3cccc(C#N)c3)cc12 [Example 94, 5-(3-cyanophenyl)-2-(4-fluorophenyl)-N-methoxy-6-[methyl (methylsulfonyl)amino]-1-benzofuran-3-carboxamide]	450 nM
CONC(=O)c1c(-c2ccc(F)cc2)oc2cc(N(C)S(C)(=O)=O)c(-c3cccc(F)c3)cc12 [Example 95, 5-(3-fluorophenyl)-2-(4-fluorophenyl)-N-methoxy-6-[methyl (methylsulfonyl)amino]-1-benzofuran-3-carboxamide]	130 nM
CONC(=O)c1c(-c2ccc(F)cc2)oc2cc(N(C)S(C)(=O)=O)c(-c3ccc(F)cc3)cc12 [Example 96, 2,5-bis(4-fluorophenyl)-N-methoxy-6-[methyl (methylsulfonyl)amino]-1-benzofuran-3-carboxamide]	1230 nM
CONC(=O)c1c(-c2ccc(F)cc2)oc2cc(N(C)S(C)(=O)=O)c(-c3cccc(OC)c3)cc12 [Example 97, 2-(4-fluorophenyl)-N-methoxy-5-(3-methoxyphenyl)-6-[methyl (methylsulfonyl)amino]-1-benzofuran-3-carboxamide]	126 nM
CONC(=O)c1c(-c2ccc(F)cc2)oc2cc(N(C)S(C)(=O)=O)c(-c3ccc(OC)cc3)cc12 [Example 98, 2-(4-fluorophenyl)-N-methoxy-5-(4-methoxyphenyl)-6-[methyl (methylsulfonyl)amino]-1-benzofuran-3-carboxamide]	72 nM
CONC(=O)c1cccc(-c2cc3c(C(=O)NOC)c(-c4ccc(F)cc4)oc3cc2N(C)S(C)(=O)=O)c1 [Example 99, 2-(4-fluorophenyl)-N-methoxy-5-[3-(methoxycarbamoyl)phenyl]-6-[methyl(methylsulfonyl)amino]-1-benzofuran-3-carboxamide]	623 nM
CNC(=O)c1cccc(-c2cc3c(C(=O)NC)c(-c4ccc(F)cc4)oc3cc2N(C)S(C)(=O)=O)c1 [Example 100, 2-(4-fluorophenyl)-N-methyl-5-[3-(methylcarbamoyl)phenyl]-6-[methyl(methylsulfonyl)amino]-1-benzofuran-3-carboxamide]	45 nM
CNC(=O)c1c(-c2ccc(F)cc2)oc2cc(N(C)S(C)(=O)=O)c(-c3cccc(CN)c3)cc12 [Example 101, 5-[3-(aminomethyl)phenyl]-2-(4-fluorophenyl)-N-methyl-6-[methyl(methylsulfonyl)amino]-1-benzofuran-3-carboxamide]	505 nM
CNC(=O)c1c(-c2ccc(F)cc2)oc2cc(N(C)S(C)(=O)=O)c(-c3cccc(CNS(C)(=O)=O)c3)cc12 [Example 102, 2-(4-fluorophenyl)-N-methyl-6-[methyl(methylsulfonyl)amino]-5-(3-{[(methylsulfonyl)amino]methyl}phenyl)-1-benzofuran-3-carboxamide]	7 nM
CNC(=O)c1c(-c2ccc(F)cc2)oc2cc(N(C)S(C)(=O)=O)c(-c3cccc(CNS(=O)(=O)c4ccccc4)c3)cc12 [Example 103, 2-(4-fluorophenyl)-N-methyl-6-[methyl(methylsulfonyl)amino]-5-(3-{[(phenylsulfonyl)amino]methyl}phenyl)-1-benzofuran-3-carboxamide]	< 8 nM
CNC(=O)c1c(-c2ccc(F)cc2)oc2cc(N(C)S(C)(=O)=O)c(-c3ccc(CNS(C)(=O)=O)cc3)cc12 [Example 104]	164 nM
CNC(=O)c1c(-c2ccc(F)cc2)oc2cc(N(C)S(C)(=O)=O)c(-c3ccc(CNS(=O)(=O)c4ccccc4)cc3)cc12 [Example 105, 2-(4-fluorophenyl)-N-methyl-6-[methyl (methylsulfonyl)amino]-5-(4-{[(phenylsulfonyl)amino]methyl}phenyl)-1-benzofuran-3-carboxamide]	57 nM
CNC(=O)c1c(-c2ccc(F)cc2)oc2cc(N(C)S(C)(=O)=O)c(-c3ccc(C(F)(F)F)cc3)cc12 [Example 108, 2-(4-fluorophenyl)-N-methyl-6-[methyl(methylsulfonyl)amino]-5-[4-(trifluoromethyl)phenyl]-1-benzofuran-3-carboxamide]	53 nM
CNC(=O)c1c(-c2ccc(F)cc2)oc2cc(N(C)S(C)(=O)=O)c(-c3ccc(OC(C)C)cc3)cc12 [Example 109, 2-(4-fluorophenyl)-N-methyl-6-[methyl(methylsulfonyl)amino]-5-[4-(propan-2-yloxy)phenyl]-1-benzofuran-3-carboxamide]	216 nM
